From article PMC5613772 (Biochemistry and Biophysics Reports, 2016) come the findings set out here.

Experiment [1] has as its target L. donovani Gcs full length (GcsF, LdGcs, Gcs) (Leishmania donovani, UniProt Q67BG3, E92A). The experiment in a line: biochemical.
Experiment [2] addresses T1, L. donovani Gcs full length (GcsF, LdGcs, Gcs) (Leishmania donovani, UniProt Q67BG3).
T1 sequence (Q67BG3 1-687): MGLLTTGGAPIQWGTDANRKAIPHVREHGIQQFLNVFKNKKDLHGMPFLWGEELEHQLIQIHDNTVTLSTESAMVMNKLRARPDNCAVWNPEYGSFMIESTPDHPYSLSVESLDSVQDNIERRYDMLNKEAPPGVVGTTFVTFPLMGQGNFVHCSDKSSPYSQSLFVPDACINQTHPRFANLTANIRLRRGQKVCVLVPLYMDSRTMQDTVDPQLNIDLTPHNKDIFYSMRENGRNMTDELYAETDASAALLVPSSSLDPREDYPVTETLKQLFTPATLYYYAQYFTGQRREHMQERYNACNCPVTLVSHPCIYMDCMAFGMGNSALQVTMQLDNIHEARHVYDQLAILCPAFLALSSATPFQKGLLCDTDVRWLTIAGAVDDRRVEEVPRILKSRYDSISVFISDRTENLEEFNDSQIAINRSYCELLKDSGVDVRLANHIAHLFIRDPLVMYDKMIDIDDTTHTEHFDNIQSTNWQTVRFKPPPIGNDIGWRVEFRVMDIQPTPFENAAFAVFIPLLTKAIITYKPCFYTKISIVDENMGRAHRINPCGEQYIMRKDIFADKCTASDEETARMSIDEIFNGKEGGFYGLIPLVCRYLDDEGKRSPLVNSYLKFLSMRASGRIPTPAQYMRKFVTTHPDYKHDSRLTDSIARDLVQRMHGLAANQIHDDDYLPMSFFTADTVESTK
In words: tryptophan fluorescence quenching. The class given is binding.

Experiment [3] concerns the target L. donovani Gcs full length (GcsF, LdGcs, Gcs) (Leishmania donovani, UniProt Q67BG3, E55A). In words: biochemical.
In the next experiment the target is GcsC (Leishmania donovani, UniProt Q67BG3). The conditions noted are these: value said to be in Table 2 but not printed there.
Experiment [4] concerns the target L. donovani Gcs full length (GcsF, LdGcs, Gcs) (Leishmania donovani, UniProt Q67BG3, E99A). The experiment in a line: biochemical.
The target of experiment [5] is L. donovani Gcs full length (GcsF, LdGcs, Gcs) (Leishmania donovani, UniProt Q67BG3, R498A). The experiment in a line: biochemical.

Structures are written as SMILES.

Regarding `Nc1ncnc2c1ncn2[C@@H]1O[C@H](COP(=O)(O)OP(=O)(O)OP(=O)(O)O)[C@@H](O)[C@H]1O` [ATP], the Kd came to 3235 ± 0.937 µM in experiment [1]; 2.7 ± 0.3 µM in experiment [2]; 2.5 ± 1 µM in experiment [3]; 5.8 ± 0.3 µM in experiment [4]; 1550 ± 238 µM in experiment [5]. Besides, the “ITC or tryptophan fluorescence quenching (not told)” value at GcsC was “GcsT and C-terminal constructs also show comparable binding with ATP”.

Take `N[C@@H](CS)C(=O)O` [L-Cysteine]: the Kd in experiment [1] was determined as 115 ± 0.35 µM; in experiment [2] it was 177 ± 2.6 µM; in experiment [3], 95 ± 2.1 µM.

Regarding `N[C@@H](CCC(=O)O)C(=O)O` [L-Glutamate], the Kd was 107 ± 0.16 µM in experiment [1]; 93.7 ± 1.8 µM in experiment [2]; 793 ± 0.182 µM in experiment [3]; 666 ± 0.3 µM in experiment [4]; 890 ± 0.167 µM in experiment [5].

The Kd is a measure of binding affinity in units of concentration. Higher therefore signals lower affinity.
